Results taken from PubChem BioAssay AID248 (DTP/NCI, 2004).
Where “and” joins values, the source holds several entries; their conditions need not be identical. Identical values can stand only once. Inconclusive results and toxic doses are left out. No stated cut-off is given here; in the data, active means T/C of 150% or more; inactive means T/C below 125%.

Tested on: L1210 leukemia ip in BDF1 mice, survival T/C
Assay: NCI In Vivo Anticancer Drug Screen. Data for tumor model L1210 Leukemia (intraperitoneal) in B6D2F1 (BDF1) mice
Conditions: endpoint: mean survival time, higher = longer survival
Method in brief: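 Transplanted-tumor mice were given test agent; controls received vehicle only. Survival readings from the two groups were divided (treated over control).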

[1] = dose: 100.0 mg/kg/injection, schedule: Q04DX003 (ip), vehicle: saline with Tween-80
[2] = dose: 200.0 mg/kg/injection, schedule: Q04DX003 (ip), vehicle: saline with Tween-80
[3] = dose: 400.0 mg/kg/injection, schedule: Q04DX003 (ip), vehicle: saline with Tween-80
[4] = dose: 100.0 mg/kg/injection, schedule: Q01DX009 (ip), vehicle: Klucel (hydroxypropylcellulose) (HPC)
[5] = dose: 100.0 mg/kg/injection, schedule: Q04DX003 (ip), vehicle: Klucel (hydroxypropylcellulose) (HPC)
[6] = dose: 200.0 mg/kg/injection, schedule: Q01DX009 (ip), vehicle: Klucel (hydroxypropylcellulose) (HPC)
[7] = dose: 200.0 mg/kg/injection, schedule: Q04DX003 (ip), vehicle: Klucel (hydroxypropylcellulose) (HPC)
[8] = dose: 400.0 mg/kg/injection, schedule: Q04DX003 (ip), vehicle: Klucel (hydroxypropylcellulose) (HPC)
[9] = dose: 100.0 mg/kg/injection, schedule: Q04DX003 (ip), vehicle: saline
[10] = dose: 200.0 mg/kg/injection, schedule: Q04DX003 (ip), vehicle: saline
[11] = dose: 400.0 mg/kg/injection, schedule: Q04DX003 (ip), vehicle: saline
[12] = dose: 75.0 mg/kg/injection, schedule: Q01DX001 (ip), vehicle: saline
[13] = dose: 150.0 mg/kg/injection, schedule: Q01DX001 (ip), vehicle: saline
[14] = dose: 25.0 mg/kg/injection, schedule: Q01DX009 (ip), vehicle: Klucel (hydroxypropylcellulose) (HPC)
[15] = dose: 50.0 mg/kg/injection, schedule: Q01DX009 (ip), vehicle: Klucel (hydroxypropylcellulose) (HPC)

Measured: T/C

O=C(NC(CO)C(O)c1ccc(N=Nc2cccc3ccccc23)cc1)C(Cl)Cl (stereo not given)
inactive: [1] 101 % of control | [2] 95 % of control | [3] 93 % of control

CCCCCOC(=O)C#CC(=O)OCCCCC
inactive: dose: 1.56 mg/kg/injection, schedule: Q01DX009 (ip), vehicle: carboxymethylcellulose (CMC) 92 % of control and 101 % of control | dose: 3.13 mg/kg/injection, schedule: Q01DX009 (ip), vehicle: carboxymethylcellulose (CMC) 108 % of control and 89 % of control | dose: 12.5 mg/kg/injection, schedule: Q01DX009 (ip), vehicle: carboxymethylcellulose (CMC) 89 % of control | dose: 12.5 mg/kg/injection, schedule: Q04DX003 (ip), vehicle: carboxymethylcellulose (CMC) 98 % of control | dose: 25.0 mg/kg/injection, schedule: Q04DX003 (ip), vehicle: carboxymethylcellulose (CMC) 98 % of control | dose: 50.0 mg/kg/injection, schedule: Q01DX009 (ip), vehicle: carboxymethylcellulose (CMC) 89 % of control | dose: 50.0 mg/kg/injection, schedule: Q04DX003 (ip), vehicle: carboxymethylcellulose (CMC) 96 % of control and 100 % of control | dose: 100.0 mg/kg/injection, schedule: Q04DX002 (ip), vehicle: carboxymethylcellulose (CMC) 97 % of control and 106 % of control | dose: 200.0 mg/kg/injection, schedule: Q04DX002 (ip), vehicle: carboxymethylcellulose (CMC) 95 % of control and 97 % of control

Cc1cc(N=Nc2ccc(N(C)C)cc2)cc(C)[n+]1[O-]
inactive: [4] 104 % of control | [5] 100 % of control | [6] 98 % of control | [7] 95 % of control | [8] 88 % of control

CC(=O)CC(C)(C)NC(=S)NN
inactive: [5] 91 % of control | [7] 101 % of control | [8] 91 % of control

CN(C)CCCN1Cc2ccccc2C1
inactive: dose: 44.0 mg/kg/injection, schedule: Q01DX Z (ip), vehicle: saline 96 % of control | dose: 66.0 mg/kg/injection, schedule: Q01DX Z (ip), vehicle: saline 100 % of control | dose: 100.0 mg/kg/injection, schedule: Q01DX Z (ip), vehicle: saline 102 % of control

COc1ccc(-n2c(=S)[nH]c3ccc(C)cc3c2=O)cc1
inactive: [1] 92 % of control | [2] 87 % of control | [3] 90 % of control

CC1(C)C2C=CC1C(CO)(CO)C2 (stereo not given)
inactive: dose: 100.0 mg/kg/injection, schedule: Q01DX009 (ip), vehicle: saline 105 % of control | [9] 103 % of control | dose: 200.0 mg/kg/injection, schedule: Q01DX009 (ip), vehicle: saline 97 % of control | [10] 92 % of control | dose: 400.0 mg/kg/injection, schedule: Q01DX009 (ip), vehicle: saline 100 % of control | [11] 109 % of control

O=C(c1ccccc1)C1CNCCC1(O)c1ccccc1 (stereo not given)
inactive: [12] 104 % of control | dose: 75.0 mg/kg/injection, schedule: Q04DX003 (ip), vehicle: acetone 101 % of control | [13] 95 % of control | dose: 150.0 mg/kg/injection, schedule: Q04DX003 (ip), vehicle: acetone 91 % of control | dose: 300.0 mg/kg/injection, schedule: Q01DX001 (ip), vehicle: saline 116 % of control

CC(c1ccc2ccccc2c1)C1CCCCC1C(=O)O (stereo not given)
inactive: [1] 96 % of control | [2] 97 % of control | [3] 94 % of control

O=C1C[C@@H]2OCC=C3C[N+]4([O-])CC[C@]56c7ccccc7N1[C@H]5[C@H]2[C@H]3C[C@@H]64 (stereo not given in full)
inactive: [13] 106 % of control

Fc1c(F)c(F)c(S/C=C/c2ccccc2)c(F)c1F
inactive: dose: 100.0 mg/kg/injection, schedule: Q01DX001 (ip), vehicle: Klucel (hydroxypropylcellulose) (HPC) 96 % of control | dose: 200.0 mg/kg/injection, schedule: Q01DX001 (ip), vehicle: Klucel (hydroxypropylcellulose) (HPC) 118 % of control | dose: 400.0 mg/kg/injection, schedule: Q01DX001 (ip), vehicle: Klucel (hydroxypropylcellulose) (HPC) 105 % of control

O=C(O)c1ccccc1C(=O)NCCCc1ccccc1
inactive: dose: 100.0 mg/kg/injection, schedule: Q01DX001 (ip), vehicle: other 98 % of control | dose: 200.0 mg/kg/injection, schedule: Q01DX001 (ip), vehicle: other 98 % of control | dose: 400.0 mg/kg/injection, schedule: Q01DX001 (ip), vehicle: other 96 % of control

OC1c2cc(Cl)cc(Cl)c2-c2c(Cl)cc(Cl)cc21
inactive: [9] 96 % of control | [10] 98 % of control | [11] 106 % of control

CSCCCNC(=O)c1csc(CCNC(=O)c2ccccc2)n1
inactive: [1] 100 % of control | [2] 100 % of control | [3] 91 % of control

CC(C)C(C#N)c1ccccc1 (stereo not given)
inactive: dose: 12.5 mg/kg/injection, schedule: Q01DX009 (ip), vehicle: Klucel (hydroxypropylcellulose) (HPC) 97 % of control | [14] 100 % of control | dose: 25.0 mg/kg/injection, schedule: Q04DX003 (ip), vehicle: Klucel (hydroxypropylcellulose) (HPC) 96 % of control | [15] 97 % of control | dose: 50.0 mg/kg/injection, schedule: Q04DX003 (ip), vehicle: Klucel (hydroxypropylcellulose) (HPC) 98 % of control

O=C(C[n+]1ccccc1Cc1ccccc1)c1ccccc1
inactive: [1] 94 % of control | [9] 102 % of control

CCCCCCCCCCN1C(=O)C(Cl)=C(Cl)C1=O
inactive: dose: 25.0 mg/kg/injection, schedule: Q04DX003 (ip), vehicle: saline with Tween-80 103 % of control | dose: 50.0 mg/kg/injection, schedule: Q04DX003 (ip), vehicle: saline with Tween-80 94 % of control

O=C1Nc2ccccc2C1=Nc1ccccc1-c1ccccc1
inactive: dose: 100.0 mg/kg/injection, schedule: Q01DX001 (ip), vehicle: saline 91 % of control | dose: 200.0 mg/kg/injection, schedule: Q01DX001 (ip), vehicle: saline 92 % of control | dose: 400.0 mg/kg/injection, schedule: Q01DX001 (ip), vehicle: saline 96 % of control

CC1(C)N=C(N)N=C(N)N1c1ccccc1F
inactive: dose: 25.0 mg/kg/injection, schedule: Q01DX009 (ip), vehicle: saline 93 % of control | dose: 38.0 mg/kg/injection, schedule: Q01DX001 (ip), vehicle: saline 101 % of control | dose: 50.0 mg/kg/injection, schedule: Q01DX009 (ip), vehicle: saline 91 % of control | [12] 101 % of control | dose: 75.0 mg/kg/injection, schedule: Q01DX009 (ip), vehicle: saline 110 % of control

N#CCN(CC#N)CCN(CC#N)CC#N
inactive: [4] 95 % of control | [5] 103 % of control | [6] 92 % of control | [7] 90 % of control | dose: 400.0 mg/kg/injection, schedule: Q01DX009 (ip), vehicle: Klucel (hydroxypropylcellulose) (HPC) 93 % of control | [8] 105 % of control

CN(CC1CCCCC1=O)CC1CCCCC1=O (stereo not given)
inactive: dose: 100.0 mg/kg/injection, schedule: Q01DX001 (ip), vehicle: steriod suspending solution 97 % of control | dose: 200.0 mg/kg/injection, schedule: Q01DX001 (ip), vehicle: steriod suspending solution 104 % of control | dose: 400.0 mg/kg/injection, schedule: Q01DX001 (ip), vehicle: steriod suspending solution 106 % of control

CNC(=O)Oc1ccc2ccccc2c1[N+](=O)[O-]
inactive: dose: 75.0 mg/kg/injection, schedule: Q01DX001 (ip), vehicle: other 101 % of control

Cc1cccc(C(=O)Cl)c1[N+](=O)[O-]
inactive: dose: 50.0 mg/kg/injection, schedule: Q01DX001 (ip), vehicle: carboxymethylcellulose (CMC) 95 % of control | dose: 100.0 mg/kg/injection, schedule: Q01DX001 (ip), vehicle: carboxymethylcellulose (CMC) 93 % of control | dose: 200.0 mg/kg/injection, schedule: Q01DX001 (ip), vehicle: carboxymethylcellulose (CMC) 90 % of control | dose: 400.0 mg/kg/injection, schedule: Q01DX001 (ip), vehicle: carboxymethylcellulose (CMC) 95 % of control

Cc1cccc(NC(=O)CCl)c1
inactive: [14] 94 % of control | [15] 87 % of control | [4] 103 % of control and 92 % of control | [5] 103 % of control | [7] 96 % of control and 86 % of control | [8] 99 % of control
